According to patent publication US20220195455A1, “DELIVERY OF CRISPR/MCAS9 THROUGH EXTRACELLULAR VESICLES FOR GENOME EDITING” (University of Georgia Research Foundation, Inc., priority 2019, published 2022):

Columns and labels:
[1] = tested on: PC3 cells; test: Lipid raft disruption, cholesterol staining; format: cell-based, human; details: 1 μM, 24 h
Procedure: PC3 cells were treated with vehicle control or 1 μM Filipin for 24 h. The treated cells were visualized under a fluorescence microscope. The treated cells were stained with Filipin III and representative images were taken.

[2] = tested on: PC3 or DU145 cells; test: Lipid raft disruption, Src kinase in EVs by immunoblotting; format: cell-based, human; details: 0-1 μM, 24 h
Procedure: PC3 and DU145 cells were grown overnight. The medium was replaced with the same growth medium but containing EVs/exosome-free FBS with DMSO (control) or Filipin III (0-1 μM) for 24 h to disrupt lipid rafts. The EVs were isolated from the conditioned medium by sequential centrifugation as described above. The isolated EVs and cells were lysed with RIPA buffer for immunoblotting analysis.

[3] = tested on: DU145, NIH 3T3, SYF1, 22Rv1 cells; test: Encapsulation of Src family kinase variants into EVs of transduced cells (Western blot, EVs vs TCL); format: cell-based; details: for levels of Fyn kinase in EVs: in comparison with Fyn(WT)
Procedure: The transfected cells were grown in exosome-free FBS medium and EVs were isolated from the conditioned medium. […] Ten μg of protein from EVs or TCL were loaded. Src protein levels were quantified by Image J software. […] Data were expressed as mean±SEM, ** p<0.01; *** p<0.001. […] The transduced cells were grown in EVs/exosome-free FBS medium with (Lane 4-6 and 10-12) or without (Lane 1-3 and 7-9) 50 μM myristic acid-azide (an analog of myristic acid). The myristoylated proteins from either EVs or TCL were detected using Click chemistry. Ten μg of protein from EVs or TCL were loaded.
EVs were isolated from conditioned medium by sequential ultracentrifugation. […] Ten μg of protein from EVs or TCL were loaded. […] Coomassie staining was used to show equivalent loading of samples. The Src expression level was quantified by Image J software. Data are expressed as mean±SEM, * p<0.05; ** p<0.01; *** p<0.001.
The transduced cells were grown in EVs/exosome-free medium for 24 h and EVs were isolated from the conditioned medium. Ten μg of protein from extracellular vesicles (EVs) or total cell lysates (TCL) were loaded. […] Data are expressed as mean±SEM. * p<0.05; **** p<0.0001; NS: Not significant.
The transduced cells were grown in exosome-free FBS medium. EVs were collected from the conditioned cell culture medium. Expression levels of Src in extracellular vesicles (EVs) and total cell lysates (TCL) from the transduced cells were evaluated by Western blotting. 10 μg of protein from Exo or TCL were loaded. […] The Src protein was quantified by Image J software. […] Data are expressed as mean±SEM. ** p<0.01.
To isolate EVs from the cell culture medium, the cell lines were grown in ATCC recommended medium in a 150-mm petri-dish. […] The size, zeta potential, and concentration of EVs were measured by nanoparticle tracking analysis (NTA, Particle Metrix, Germany) with ZetaView software for data record and analysis.
The total cell lysate and EVs dissolved in RIPA buffer were subjected to the standard immunoblotting analysis. […] The band intensity was quantified by Image J software.

[4] = molecular target: T1, full length NMT1 protein (Homo sapiens, UniProt P30419); test: NMT1 activity assay (CoA release, fluorescence); format: biochemical; details: octapeptide as NMT1 substrate;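 note: released CoA from NMT1-catalysed myristoylation of octapeptide substrates detected by fluorescence after reaction with a maleimide coumarin dye (excitation 390 nm, emission 479 nm), triplicate points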
T1 construct: Km and Vmax catalyzed by full length NMT1 protein were calculated
T1 sequence (P30419 1-496): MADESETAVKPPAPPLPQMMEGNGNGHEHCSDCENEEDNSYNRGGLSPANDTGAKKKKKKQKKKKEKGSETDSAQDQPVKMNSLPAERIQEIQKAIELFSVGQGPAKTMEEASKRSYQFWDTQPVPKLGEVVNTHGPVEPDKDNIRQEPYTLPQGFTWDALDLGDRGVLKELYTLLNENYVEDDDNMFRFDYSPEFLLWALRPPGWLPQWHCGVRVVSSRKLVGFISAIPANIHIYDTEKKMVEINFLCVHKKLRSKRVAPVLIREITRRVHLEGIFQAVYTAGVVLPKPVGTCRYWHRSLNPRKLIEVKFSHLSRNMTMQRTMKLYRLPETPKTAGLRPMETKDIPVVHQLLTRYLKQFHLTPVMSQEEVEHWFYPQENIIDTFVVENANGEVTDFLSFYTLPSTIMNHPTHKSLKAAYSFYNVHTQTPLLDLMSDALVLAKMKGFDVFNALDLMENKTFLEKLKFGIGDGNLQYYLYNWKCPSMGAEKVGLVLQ
Procedure: The amount of the released CoA were reacted with 7-diethylamino-3-(4′-maleimidylphenyl)-4-methylcoumarin. The assay was performed in 96-well black microplates. The produced fluorescence intensity was measured by Flex Station 3, and detected by microplate reader (excitation at 390 nm; emission at 479 nm).
The amount of the released CoA were reacted with 7-diethylamino-3-(4′-maleimidylphenyl)-4-methylcoumarin. The assay was performed in 96-well black microplates. The produced fluorescence intensity was measured by Flex Station 3, and detected by microplate reader (excitation at 390 nm; emission at 479 nm). To measure the Km and Vmax of NMT1 which catalyzed various octapeptides substrates derived from various proteins, twenty-five octapeptides were synthesized by GenScript. […] Each data point has three repeats.
Km and Vmax catalyzed by full length NMT1 protein were calculated.

## CCCCC[C@@H](O)[C@H]1C(=O)O[C@H](C)[C@@H](O)/C=C/C=C/C=C/C=C/C=C(\C)[C@@H](O)C[C@H](O)C[C@H](O)C[C@H](O)C[C@H](O)C[C@H](O)C[C@@H]1O [Filipin III]
[1]
  cholesterol levels: significantly decreased
[2]
  expression levels of Src kinase in EVs: did not significantly change

## Fyn(C3S/C6S): Fyn mutant with loss of palmitoylation (GSVQSK)
[3]
  levels of Fyn kinase in EVs: significantly increased

## Fyn(G2A): Fyn mutant with loss of myristoylation (ACVQCK)
[3]
  levels of Fyn kinase in EVs: significantly inhibited

## Fyn(WT): wild type Fyn kinase (GCVQCK)
[3]
  levels of kinase in EVs in comparison with total cell lysate: decreased

## GQSQSGGH (SEQ ID NO: 364) [PSMC1]
[4]
  Km: 40 µM
  Vmax: 9.6 µM/min

## GSCCSCPD (SEQ ID NO: 370) [FRS2]
[4]
  Km: 28.2 µM
  Vmax: 54.7 µM/min
